Assay results from US11840521B2, “Modulators of Mas-related G-protein receptor X4 and related products and methods” (Escient Pharmaceuticals, Inc., priority 2019, dated 2023).
“Also recorded” adds a separate entry of the source. Read-outs that look alike come from different tables or passages of the source.

What was measured:
[1] = target: T1, MRGPRX4 (Homo sapiens, UniProt Q96LA9); assay: In vitro activation (agonism) of MRGPRX4, IP-One Gq HTRF assay; type: cell-based
Protocol: Metabolites of heme (bilirubin, biliverdin, urobilin, urobilinogen, and stercobilin) were analyzed for in vitro activation of MRGPRX4. Cells were plated in a 384-well assay plate at 20,000 cells per well in 12 μL of Opti-MEM and kept in an incubator overnight. On the day of the assay, different agonists solubilized at 10 mM in 0.1% NaOH were added as a 10-point curve ([…] final top concentration with 1:3 serial dilutions) using a Tecan D300E digital dispenser. Agonists were diluted in assay buffer (final concentrations of 5.7 mM Tris-HCl, 43 mM NaCl, 50 mM LiCl, pH=8) and 2 μL of the appropriate agonist are added to each well. Plates were incubated in the dark for 1 h at 37° C. and then for 30 minutes at room temperature. IP-1 standards and HTRF detection reagents were added according to the IP-One—Gq Kit purchased from Cisbio (part number 62IPAPEJ) and incubated in the dark for 1 h at room temperature. The plate was read on a Molecular Devices SpectraMax iD5 plate reader. The HTRF ratio was calculated from the raw data and graphed using GraphPad Prism to calculate an IC50 value for each compound.

[2] = target: T1, MRGPRX4; assay: MRGPR X4 antagonist activity, IP-One Gq HTRF assay in stably transfected HEK cells (versus agonist bilirubin, deoxycholic acid, conjugated bilirubin, urobilin, obeticholic acid or BAR502); type: cell-based; parameters: expressed in transfected cells; host or cells: HEK cells, stably transfected
Procedure, shortened: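 Stably transfected HEK cells expressing human MRGPR X4, seeded overnight, given compounds as 10-point 1:3 curves from 10 uM final top, incubated 1 h at 37° C then 30 min at room temperature. IP-1 measured by IP-One Gq HTRF. IC50 derived from the HTRF ratio.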

[3] = Mouse pharmacokinetics study, 50 mg/kg oral gavage, plasma LC-MS/MS; type: in vivo; settings: male C57BL/6 mice, non-fasted
Protocol: Compounds were formulated in 5% DMSO, 5% Solutol, and […] phosphate buffered saline at a concentration of 5 mg/mL, and typically appeared as a fine homogenous suspension. Male C57BL/6 mice (n=3/compound) were administered a 50 mg/kg dose of each compound by oral gavage under a non-fasted condition. Blood samples were collected via the saphenous vein onto K2-EDTA at 0.25, 0.5, 1, 2, 4, 8 and 24 hours after dosing, and plasma was prepared and stored at […] until analysis. Plasma sample preparation for analysis was done by protein precipitation using acetonitrile (including Celecoxib as an internal standard) followed by centrifugation. Compound concentrations were determined in extracted plasma using LC-MS/MS relative to an 8 point standard curve covering the 1 to 3000 ng/mL range. Non-compartmental analysis using Phoenix WinNonlin was used to estimate pharmacokinetic parameters including area under the curve, clearance, and half-life. The administered dose was confirmed by analysis of residual dosing material by UPLC-UV relative to a single point calibration sample.

[4] = target: T1, MRGPRX4; assay: Agonism of MRGPRX4 by bilirubin and urobilin samples after 24 h storage; type: cell-based; settings: 24 h at room temperature under blue light; FIG. 4B
Protocol: Samples were evaluated after 24 hours and the percent remaining of urobilin and bilirubin, relative to a time zero standard, were determined by measurement of the degradation of the analyte contained in the samples as determined by tandem mass spectroscopy (LC MS/MS). The samples (at 24 h) were also evaluated for their ability to agonize MRGPRX4.

[5] = system: wild type mice; assay: Mouse itch study, scratching bouts after subcutaneous pruritogen (SCLABA); type: in vivo; settings: SC injection on the neck, 30 min recording, FIG. 2A-2B
Protocol: The ability of urobilin to induce itch in wild type mice was also tested. Typical mouse itch studies occurred as follows: C57B6J male mice were multiple-housed in a normal light cycle (6 am on; […]) under temperature and humidity-controlled conditions. The mice were handled and habituated to test chambers before testing, then placed in individual SCLABA test chambers. After 20 minutes, the mice were dosed PO with vehicle (saline, pH 7-8). After 30 minutes, the pruritogen of study ([…] in saline) or saline is given subcutaneously (SC) on the neck on the midline behind the ears. Video was recorded from the first pruritogen injection for 30 minutes using the SCLABA system. Scratching bouts were scored from SCLABA thumbnails using 12/45/85/100 waveform criteria. Group sizes were typically 9-10 animals per group.

[6] = read-out: IC50 (10 μM BAR502) nM, MRGPRX4 antagonists versus 10 μM BAR502 agonist
[7] = versus 10 μM Bilirubin agonist, HEK cells expressing human MRGPR X4, read-out: MRGPR4 Antagonist Activity
[8] = versus 10 μM Bilirubin agonist, read-out: IC50 (Bilirubin agonist)
[9] = versus 20 μM deoxycholic acid, read-out: IC50 (Deoxycholic Acid agonist)
[10] = versus 20 μM obeticholic acid, read-out: IC50 (Obeticholic Acid Agonist)
[11] = versus 50 μM urobilin, read-out: IC50 (Urobilin Agonist)
[12] = versus 100 μM conjugated bilirubin, read-out: IC50 (Conjugated Bilirubin Agonist)

T1 sequence (Q96LA9 whole entry): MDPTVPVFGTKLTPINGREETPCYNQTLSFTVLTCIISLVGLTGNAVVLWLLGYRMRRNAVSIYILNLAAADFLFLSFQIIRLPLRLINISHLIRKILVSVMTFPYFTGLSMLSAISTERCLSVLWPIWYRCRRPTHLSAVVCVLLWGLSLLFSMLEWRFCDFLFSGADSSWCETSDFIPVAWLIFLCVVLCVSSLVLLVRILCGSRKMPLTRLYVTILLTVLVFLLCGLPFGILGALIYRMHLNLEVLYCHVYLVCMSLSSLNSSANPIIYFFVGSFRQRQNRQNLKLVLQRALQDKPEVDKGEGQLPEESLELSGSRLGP

EC50 ([1]; read-out: agonist activity against MRGPRX4) [nM] | IC50 [2, 6] [nM] | IC50 [2, 7] [nM] | IC50 [2, 8] [nM] | IC50 [2, 9] [nM] | IC50 [2, 10] [nM] | IC50 [2, 11] [nM] | IC50 [2, 12] [nM] | AUC [3] [μMxhr] | Cmax [3] [µM] | T-1/2 [3] [h] | agonist activity on MRGPRX4 after storage, relative to the other three groups [4] | efficacy at activating MRGPRX4 relative to bilirubin ([1]; FIG. 1, compared with bilirubin) | SMILES | induction of scratch response in mice [5]
5700 | – | – | – | – | – | – | – | – | – | – | – | – | CC[C@H]1[C@@H](O)[C@@H]2[C@H](CC[C@]3(C)[C@@H]([C@H](C)CCO)CC[C@@H]23)[C@@]2(C)CC[C@@H](O)C[C@@H]12 [BAR502] | –
– | – | < 100 | 20 | 46 | 25 | 16 | 46 | 615 | 196 | 4.6 | – | – | O=C(O)c1cccc(COc2ccc(C(F)(F)F)cc2Cl)c1 [Compound 1-29] | –
– | 16 | < 100 | 6 | 22 | 11 | 23 | 14 | 2150 | 230 | 11.2 | – | – | O=C(O)c1cccc(COc2ccc(C(F)(F)F)cc2Cl)c1F [Compound 1-55, 3-((2-chloro-4-(trifluoromethyl)phenoxy)methyl)-2-fluorobenzoic acid] | –
– | – | < 100 | 20 | 30 | 15 | 41 | 29 | 1069 | 239 | 4.7 | – | – | O=C(O)c1cc(COc2ccc(C(F)(F)F)cc2Cl)ccc1F [Compound 1-85, 5-((2-chloro-4-(trifluoromethyl)phenoxy)methyl)-2-fluorobenzoic acid] | –
– | – | < 100 | 81 | 230 | 47 | – | 180 | 1206 | 306 | 3.0 | – | – | O=C(O)c1cccc(COc2ccc(Cl)cc2Cl)n1 [Compound 1-115] | –
– | – | < 100 | 16 | 22 | 15 | 35 | 21 | 974 | 260 | 4.6 | – | – | Cc1cc(COc2ccc(C(F)(F)F)cc2Cl)cc(C(=O)O)c1 [Compound 4-10, 3-((2-chloro-4-(trifluoromethyl)phenoxy)methyl)-5-methylbenzoic acid] | –
– | 17 | < 100 | 16 | 16 | 7 | 21 | 28 | 4700 | 460 | 5.4 | – | – | CCc1cc(COc2ccc(C(F)(F)F)cc2Cl)nc(C(=O)O)c1 [Compound 42-3] | –
– | – | < 100 | – | – | – | – | – | – | – | – | – | – | CC(Oc1ccc(C(F)(F)F)cc1Cl)c1cccc(C(=O)O)c1 (stereo not shown) [Compound 62-1, 3-(1-(2-chloro-4-(trifluoromethyl)phenoxy)ethyl)benzoic acid] | –
– | – | > 2500 | – | – | – | – | – | – | – | – | – | – | O=C(O)Cc1cccc(COc2ccc(Cl)cc2Cl)c1 [Compound 64-1, 2-(3-((2,4-dichlorophenoxy)methyl)phenyl)acetic acid] | –
– | – | 500 to 1000 | – | – | – | – | – | – | – | – | – | – | Nc1cccc(COc2ccc(C(F)(F)F)cc2Cl)c1 [Compound 65-1, 3-((2-chloro-4-(trifluoromethyl)phenoxy)methyl)aniline] | –
– | – | – | – | – | – | – | – | – | – | – | very little agonist activity | at least 10 fold | CCC1=C(C)C(CC2=N/C(=C\c3[nH]c(CC4NC(=O)C(C)=C4CC)c(C)c3CCC(=O)O)C(CCC(=O)O)=C2C)NC1=O (stereo not shown) [Urobilin, urobilin] | induced scratch response in mice in a dose dependent manner; also recorded: potent inducer of scratch response in mice

Continued, compound first:

SMILES | EC50 ([1]; read-out: agonist activity against MRGPRX4) [nM] | IC50 [2, 6] [nM] | IC50 [2, 7] [nM] | IC50 [2, 8] [nM] | IC50 [2, 9] [nM] | IC50 [2, 10] [nM] | IC50 [2, 11] [nM] | IC50 [2, 12] [nM] | AUC [3] [μMxhr] | Cmax [3] [µM] | T-1/2 [3] [h] | agonist activity on MRGPRX4 after storage, relative to the other three groups [4] | efficacy at activating MRGPRX4 relative to bilirubin ([1]; FIG. 1, compared with bilirubin) | induction of scratch response in mice [5]
O=C(O)c1cccc(COc2ccc(Cl)cc2Cl)c1 [Compound 1-18] | – | 48 | < 100 | 57 | 130 | 40 | 230 | 130 | 376 | 113 | 4.2 | – | – | –
O=C(O)c1cccc(COc2ccc(C(F)(F)F)cc2Cl)n1 [Compound 1-56, 6-((2-chloro-4-(trifluoromethyl)phenoxy)methyl)picolinic acid] | – | 16 | < 100 | 28 | 30 | 24 | 21 | 32 | 880 | 162 | 3.2 | – | – | –
O=C(O)c1cc(F)cc(COc2ccc(C(F)(F)F)cc2Cl)c1 [Compound 1-65, 3-((2-chloro-4-(trifluoromethyl)phenoxy)methyl)-5-fluorobenzoic acid] | – | 13 | < 100 | 9 | 28 | 23 | 21 | 17 | 1037 | 220 | 4.8 | – | – | –
O=C(O)c1cccc(COc2ccc(Cl)c(Cl)c2Cl)c1 [Compound 1-78] | – | 20 | < 100 | 7 | 24 | 21 | 13 | 24 | 219 | 57 | 4.0 | – | – | –
O=C(O)c1cccc(COc2ccc(Cl)cc2Cl)c1F [Compound 4-1, 3-((2,4-dichlorophenoxy)methyl)-2-fluorobenzoic acid] | – | – | < 100 | 27 | 55 | – | – | 81 | 1503 | 231 | 5.9 | – | – | –
Cc1cc(COc2ccc(C(F)(F)F)cc2C)cc(C(=O)O)c1 [Compound 4-11] | – | – | < 100 | 24 | 63 | 25 | 35 | 41 | 572 | 257 | 3.6 | – | – | –
N#Cc1cc(C#Cc2ccc(C(F)(F)F)cc2Cl)cc(C(=O)O)c1 [Compound 60-1, 3-((2-chloro-4-(trifluoromethyl)phenyl)ethynyl)-5-cyanobenzoic acid] | – | – | 100 to 500 | – | – | – | – | – | – | – | – | – | – | –
N#Cc1cc(CCc2ccc(C(F)(F)F)cc2Cl)cc(C(=O)O)c1 [Compound 61-1, 3-(2-chloro-4-(trifluoromethyl)phenethyl)-5-cyanobenzoic acid] | – | – | 100 to 500 | – | – | – | – | – | – | – | – | – | – | –
CNCc1cccc(COc2ccc(C(F)(F)F)cc2Cl)c1 [Compound 63-1, 1-(3-((2-chloro-4-(trifluoromethyl)phenoxy)methyl)phenyl)-N-methylmethanamine] | – | – | 100 to 500 | – | – | – | – | – | – | – | – | – | – | –
